Among the test systems are A498; ACHN; COLO 205; HL-60; KM12; M14; MCF7; MDA-N; MOLT-4; Malme-3M; NCI-H522; SF-295; SK-MEL-5; SN12C; SNB-19; SNB-75; T47D; UACC-62; BT-549.
Assay in all cases: DTP human tumour cell line panel, 48 h

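Where inhibition never reached the appropriate level, the endpoint shown equals the highest concentration tested. Otherwise, values were interpolated linearly from a five-concentration, 48-hour dose response in 96-well plates. GI50 marks 50% less growth.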 Activity calls are given as the source filed them. Rule as the data show it: active = GI50 up to about 1.1 µM and inactive = higher.

On to `COc1ccc(-c2c3c(n(C4OC(COC(C)=O)C(OC(C)=O)C(OC(C)=O)C4OC(C)=O)c(=S)c2C#N)CCCC3)cc1` (stereo unspecified), for which the GI50 in the assay with A498 was 15.2 µM (inactive); with ACHN, 55.6 µM (inactive); in the assay on COLO 205, 69.5 µM (inactive); in the assay on HL-60 it was 62.5 µM (inactive); in the assay on KM12, > 100 µM (inactive); with M14 it was > 100 µM (inactive). Also, the GI50 in the assay with MCF7 was > 100 µM (inactive); with MDA-N, 91.4 µM (inactive); in the assay on MOLT-4, 27.6 µM (inactive); in the assay with Malme-3M it was 82.6 µM (inactive); in the assay with NCI-H522, 25.3 µM (inactive); in the assay with SF-295 it was > 100 µM (inactive). Also, the GI50 in the assay with SK-MEL-5 was 34.4 µM (inactive); in the assay on SN12C, > 100 µM (inactive); in the assay with SNB-19, 24.7 µM (inactive); in the assay with SNB-75, 16.4 µM (inactive); in the assay with T47D it was 34.3 µM (inactive); in the assay on UACC-62, 20 µM (inactive).

As for `Cc1[nH]n(C(=N)N)c(=O)c1CCO`, the GI50 in the assay on A498, with ACHN, with BT-549, in the assay with COLO 205, with HL-60 and in the assay with M14 was > 100 µM (inactive) each time. For the same compound, the GI50 in the assay on MCF7, in the assay with MDA-N, in the assay with Malme-3M, with NCI-H522, in the assay on SF-295 and with SK-MEL-5 was > 100 µM (inactive) each time. Besides, the GI50 in the assay with SN12C, with SNB-19, in the assay with SNB-75 and with UACC-62 was > 100 µM (inactive) throughout.

Turning to `CC(=O)/N=C1\NC(=O)/C(=C/c2ccc(Cl)cc2Cl)N1C`, the GI50 is > 100 µM (inactive) in the assay with ACHN; 87.7 µM (inactive) in the assay on BT-549; > 100 µM (inactive) in the assay with COLO 205; 0.277 µM (active) in the assay with HL-60; > 100 µM (inactive) with KM12; 95.3 µM (inactive) with M14. In addition, the GI50 in the assay on MCF7 is > 100 µM (inactive); with MDA-N, > 100 µM (inactive); with MOLT-4 it was 7.76 µM (inactive); in the assay with NCI-H522, > 100 µM (inactive); with SF-295 it was 96.2 µM (inactive); in the assay with SK-MEL-5, 35.7 µM (inactive). In addition, the results for the GI50 with SNB-19, in the assay with SNB-75 and with UACC-62 were 47.6 µM (inactive), 58.1 µM (inactive) and 9.04 µM (inactive), respectively.

For `COC(=O)[C@@H](NC(=O)N(Cc1ccccc1)C[C@H](CC(C)C)NC(=O)[C@@H](NC(=O)OC(C)(C)C)C(C)C)C(C)C`, the GI50 in the assay on A498, in the assay with ACHN, in the assay on BT-549, in the assay with COLO 205, in the assay with HL-60 and in the assay with KM12 was > 100 µM (inactive) in each case. Further, the GI50 in the assay with M14, in the assay on MDA-N, in the assay with MOLT-4, with Malme-3M, in the assay on NCI-H522 and in the assay with SF-295 was > 100 µM (inactive) throughout. For the same compound, the GI50 with SK-MEL-5 is > 100 µM (inactive); with SNB-19, > 100 µM (inactive); in the assay with SNB-75, 33.7 µM (inactive); with T47D it was > 100 µM (inactive); in the assay with UACC-62, > 100 µM (inactive).

`COC(=O)C(NC(=O)CNC(=O)CSc1nnc(COc2ccc(Cl)cc2)n1-c1ccccc1)C(C)C` (stereo unspecified): the GI50 in the assay on A498 is 21.6 µM (inactive); with ACHN it was 18 µM (inactive); with BT-549, 18.5 µM (inactive); in the assay with COLO 205, 19.5 µM (inactive); in the assay on KM12, 18.5 µM (inactive); with M14, 18.7 µM (inactive). The GI50 in the assay on MCF7 was 16.1 µM (inactive); with MDA-N, 21.6 µM (inactive); with MOLT-4 it was 22.3 µM (inactive); with Malme-3M, 18.4 µM (inactive); in the assay with NCI-H522, 3.75 µM (inactive); in the assay on SF-295 it was 19.5 µM (inactive). Further, the GI50 in the assay on SK-MEL-5 was 16.2 µM (inactive); in the assay with SN12C, 18.4 µM (inactive); in the assay with SNB-19, 20.3 µM (inactive); with SNB-75 it was 21.3 µM (inactive); with UACC-62, 16.6 µM (inactive).

On to `COc1cccc(C2SCC(=O)N2c2ccc(-n3c(-c4ccccc4)nc4ccccc4c3=O)cc2)c1OC` (stereo unspecified), for which the GI50 in the assay with A498, in the assay on ACHN, with BT-549, with COLO 205, in the assay on HL-60 and in the assay on KM12 was > 100 µM (inactive) each time. Also, the GI50 with M14, in the assay with MDA-N, in the assay on MOLT-4, with Malme-3M, in the assay with NCI-H522 and with SF-295 was > 100 µM (inactive) in each case. Further, the GI50 in the assay on SK-MEL-5 was > 100 µM (inactive); with SN12C it was > 100 µM (inactive); in the assay with SNB-19, > 100 µM (inactive); in the assay with SNB-75, > 60.5 µM (inactive); in the assay on T47D, 31.6 µM (inactive); with UACC-62, > 38.5 µM (inactive).

`CN(C)CCCNC(=O)CCNC(=O)c1cc(NC(=O)c2cc(NC(=O)c3cc(NC(=O)c4nc(NC(=O)CCCNC(=O)c5cc(NC(=O)c6cc(NC(=O)c7cc(NC(=O)c8nccn8C)cn7C)cn6C)cn5C)cn4C)cn3C)cn2C)cn1C`: the GI50 in the assay with A498 was > 100 µM (inactive); in the assay with ACHN, > 100 µM (inactive); in the assay on COLO 205 it was > 100 µM (inactive); in the assay on HL-60, > 100 µM (inactive); in the assay with KM12 it was 73.5 µM (inactive); with M14, > 100 µM (inactive). Further, the GI50 in the assay on MCF7, in the assay with MDA-N, with MOLT-4, in the assay on Malme-3M, in the assay on NCI-H522 and in the assay on SF-295 was > 100 µM (inactive) throughout. Besides, the GI50 with SK-MEL-5, with SN12C, with SNB-19, with SNB-75 and in the assay with T47D was > 100 µM (inactive) in each case.

`Cc1cc(S(=O)(=O)Nc2nc(N)n[nH]2)c(Cl)cc1Cl`: the GI50 in the assay on A498, with ACHN, in the assay with BT-549, in the assay with COLO 205, in the assay with HL-60 and in the assay with KM12 was > 10 µM (inactive) in each case. The GI50 in the assay with M14, with MDA-N, with MOLT-4, in the assay on Malme-3M, in the assay on NCI-H522 and in the assay on SF-295 was > 10 µM (inactive) throughout. Also, the GI50 with SK-MEL-5, with SN12C, in the assay on SNB-19, in the assay on SNB-75, with T47D and with UACC-62 was > 10 µM (inactive) each time.

With `CC(=O)NC1(C)CCC(C(C)(C)NC(C)=O)CC1` (stereo unspecified), the GI50 with A498, in the assay on ACHN, with BT-549, in the assay on COLO 205, with HL-60 and with KM12 was > 100 µM (inactive) in each case. Further, the GI50 with M14, in the assay on MCF7, with MDA-N, with MOLT-4, with Malme-3M and with SF-295 was > 100 µM (inactive) throughout. Moreover, the GI50 in the assay on SK-MEL-5, with SN12C, with SNB-19, with SNB-75 and with UACC-62 was > 100 µM (inactive) throughout.

`CCc1nc2cc(F)ccc2[nH]c1=O`: the GI50 in the assay on A498 was 22.4 µM (inactive); with ACHN it was > 100 µM (inactive); in the assay on BT-549 it was > 100 µM (inactive); in the assay on COLO 205, > 100 µM (inactive); in the assay on HL-60 it was > 100 µM (inactive); in the assay with KM12, > 100 µM (inactive). The GI50 with M14, with MCF7, with MDA-N, in the assay with MOLT-4, in the assay on Malme-3M and in the assay with SF-295 was > 100 µM (inactive) throughout. The GI50 in the assay with SK-MEL-5 is > 100 µM (inactive); in the assay on SN12C, > 100 µM (inactive); in the assay with SNB-19, > 100 µM (inactive); with SNB-75, 82.8 µM (inactive); in the assay on UACC-62, 38.7 µM (inactive).

`CCN1C(c2ccccc2)=CC(c2ccccc2)(C(Cl)(Cl)Cl)C=C1c1ccccc1`: the GI50 in the assay with A498 was 17.3 µM (inactive); in the assay with ACHN, 24.9 µM (inactive); in the assay with HL-60, 1.1 µM (active); in the assay with KM12, 3.31 µM (inactive); in the assay on M14 it was 4.35 µM (inactive); in the assay with MCF7 it was 5.92 µM (inactive). For the same compound, the GI50 with MDA-N is 4.94 µM (inactive); with MOLT-4 it was 10.9 µM (inactive); in the assay with Malme-3M, 4.5 µM (inactive); with NCI-H522, 5.69 µM (inactive); in the assay with SF-295, 32.5 µM (inactive); in the assay with SK-MEL-5, 1.7 µM (inactive). Further, the GI50 in the assay on SN12C was 45.3 µM (inactive); in the assay with SNB-19, 4.46 µM (inactive); with SNB-75, 5.06 µM (inactive); in the assay with T47D, 0.44 µM (active).

A word on the GI50: it is the concentration at which growth is held to half of that of the control.

Source of the values: ChEMBL document CHEMBL1201862, “PubChem BioAssay data set” (2004).
